In ChEMBL document CHEMBL1221176, “Actin microfilament aggregation induced by withaferin A is mediated by annexin II” (Nat Chem Biol, 2006):
Blank lines part the entries; values can stand above or below the molecule they belong to. Active and inactive are the calls of the source. The rule behind the calls is not given here.

Tests used:
[1] = target: Annexin A2 (Homo sapiens) (UniProt P07355); test: Inhibition of annexin 2-mediated liposome aggregation after 15 mins by spectrophotometry
Target sequence in this assay (P07355 whole entry): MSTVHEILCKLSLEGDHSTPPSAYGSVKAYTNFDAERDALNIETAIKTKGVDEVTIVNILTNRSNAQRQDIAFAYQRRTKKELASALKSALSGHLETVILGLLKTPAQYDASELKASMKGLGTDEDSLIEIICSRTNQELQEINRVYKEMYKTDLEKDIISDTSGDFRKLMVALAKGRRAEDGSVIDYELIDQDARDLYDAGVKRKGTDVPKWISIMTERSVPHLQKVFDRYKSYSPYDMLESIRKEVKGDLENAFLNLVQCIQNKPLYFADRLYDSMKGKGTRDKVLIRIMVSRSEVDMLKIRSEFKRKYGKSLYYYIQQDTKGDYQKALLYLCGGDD

[2] = target: Annexin A2 (Homo sapiens) (UniProt P07355); test: Binding affinity to annexin 2 assessed as inhibition of protein-lipid interaction after 15 mins by coomassine blue staining
Target sequence in this assay (P07355 whole entry): as above

[3] = target: Annexin A2 (Homo sapiens) (UniProt P07355); test: Induction of annexin 2-mediated F-actin disruption in human WI38 cells at 4 uM after 2 hrs by confocal laser scanning microscopy; type: cell-based; conditions: WI-38
Target sequence in this assay (P07355 whole entry): as above

[4] = system: HepG2; test: Cytotoxicity against human HepG2 cells harboring annexin 2 assessed as rapid shape change and rounding up at 4 uM after 2 hrs; type: functional, cell-based
[5] = target: Annexin A2 (Homo sapiens) (UniProt P07355); test: Induction of annexin 2-mediated F-actin disruption in human HepG2 cells at 4 uM after 2 hrs by confocal laser scanning microscopy; type: cell-based
Target sequence in this assay (P07355 whole entry): as above

[6] = target: Annexin A2 (Homo sapiens) (UniProt P07355); test: Effect on human annexin 2-mediated F-actin bundling assessed as increase in light scattering after 1 hr by SDS-PAGE
Target sequence in this assay (P07355 whole entry): as above

[7] = species on record: Homo sapiens; test: Effect on human F-actin bundling assessed as light scattering after 1 hr by SDS-PAGE
[8] = target: Annexin A2 (Homo sapiens) (UniProt P07355); test: Induction of annexin-2-mediated cytotoxicity in human MCF10A cells assessed as cell morphology at 4 uM after 2 hrs by scanning electron microscopy; conditions: MCF-10A
Target sequence in this assay (P07355 whole entry, looked up): as the sequence (P07355 whole entry) above

[9] = target: T1, Annexin A6 (Bos taurus) (UniProt P79134); test: Displacement of biotinyl-withaferin from bovine lung annexin 6 at 10 uM by chemiluminescence assay
T1 sequence (whole entry): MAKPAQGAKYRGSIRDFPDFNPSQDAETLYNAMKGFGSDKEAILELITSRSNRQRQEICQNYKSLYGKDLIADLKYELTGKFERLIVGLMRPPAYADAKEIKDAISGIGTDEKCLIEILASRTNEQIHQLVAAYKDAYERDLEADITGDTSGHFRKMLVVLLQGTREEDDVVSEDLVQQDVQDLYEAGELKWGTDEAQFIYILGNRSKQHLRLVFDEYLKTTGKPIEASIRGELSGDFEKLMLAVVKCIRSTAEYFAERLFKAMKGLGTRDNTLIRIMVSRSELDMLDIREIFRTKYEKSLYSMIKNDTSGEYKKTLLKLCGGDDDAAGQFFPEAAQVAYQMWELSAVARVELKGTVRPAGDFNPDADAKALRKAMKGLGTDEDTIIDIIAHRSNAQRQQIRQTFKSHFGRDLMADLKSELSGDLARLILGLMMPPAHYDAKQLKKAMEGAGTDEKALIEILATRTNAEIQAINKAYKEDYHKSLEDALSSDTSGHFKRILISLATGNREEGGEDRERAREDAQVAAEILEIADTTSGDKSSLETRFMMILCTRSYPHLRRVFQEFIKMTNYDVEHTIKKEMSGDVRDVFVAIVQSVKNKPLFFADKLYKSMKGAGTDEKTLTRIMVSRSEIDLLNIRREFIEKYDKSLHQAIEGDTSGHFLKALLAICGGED

[10] = system: CHP100; test: Cytotoxicity against human CHP100 cells assessed as viable cell after 24 hrs by MTT assay; type: functional, cell-based
[11] = species on record: Homo sapiens; test: Effect on human F-actin pellet formation after 1 hr by SDS-PAGE
[12] = target: T2, Annexin A1 (Bos taurus) (UniProt P46193); test: Displacement of biotinyl-withaferin from bovine lung annexin 1 at 10 uM by chemiluminescence assay
T2 sequence (whole entry): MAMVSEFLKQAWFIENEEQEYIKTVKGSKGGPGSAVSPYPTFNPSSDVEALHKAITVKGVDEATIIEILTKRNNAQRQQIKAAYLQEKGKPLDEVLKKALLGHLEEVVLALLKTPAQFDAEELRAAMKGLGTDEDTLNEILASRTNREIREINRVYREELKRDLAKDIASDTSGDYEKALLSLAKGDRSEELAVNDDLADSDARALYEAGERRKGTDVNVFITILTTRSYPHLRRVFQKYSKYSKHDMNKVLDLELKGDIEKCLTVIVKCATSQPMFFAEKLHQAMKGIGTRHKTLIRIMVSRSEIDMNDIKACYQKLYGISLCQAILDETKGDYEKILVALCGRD

[13] = target: Annexin A2 (Bos taurus) (UniProt P04272); test: Displacement of biotinyl-withaferin from bovine lung annexin 2 at 10 uM by chemiluminescence assay
[14] = target: Annexin A2 (Homo sapiens) (UniProt P07355); test: Displacement of biotinyl-withaferin from annexin-2 in human MCF10A at 0.4 to 4 uM by chemiluminescence assay
Target sequence in this assay (P07355 whole entry): as the sequence (P07355 whole entry) above

[15] = target: T3, Annexin A4 (Bos taurus) (UniProt P13214); test: Displacement of biotinyl-withaferin from bovine lung annexin 4 at 10 uM by chemiluminescence assay
T3 sequence (whole entry): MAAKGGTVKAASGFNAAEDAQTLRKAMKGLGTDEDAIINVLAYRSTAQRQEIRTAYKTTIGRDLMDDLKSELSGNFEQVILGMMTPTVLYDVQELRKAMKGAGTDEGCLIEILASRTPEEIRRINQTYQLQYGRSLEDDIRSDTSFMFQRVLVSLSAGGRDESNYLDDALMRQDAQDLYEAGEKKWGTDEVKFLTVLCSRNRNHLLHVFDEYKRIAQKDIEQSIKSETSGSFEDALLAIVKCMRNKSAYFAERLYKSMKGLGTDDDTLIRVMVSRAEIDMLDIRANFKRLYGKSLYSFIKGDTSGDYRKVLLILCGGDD

[16] = target: T4, Annexin A5 (Bos taurus) (UniProt P81287); test: Displacement of biotinyl-withaferin from bovine lung annexin 5 at 10 uM by chemiluminescence assay
T4 sequence (whole entry): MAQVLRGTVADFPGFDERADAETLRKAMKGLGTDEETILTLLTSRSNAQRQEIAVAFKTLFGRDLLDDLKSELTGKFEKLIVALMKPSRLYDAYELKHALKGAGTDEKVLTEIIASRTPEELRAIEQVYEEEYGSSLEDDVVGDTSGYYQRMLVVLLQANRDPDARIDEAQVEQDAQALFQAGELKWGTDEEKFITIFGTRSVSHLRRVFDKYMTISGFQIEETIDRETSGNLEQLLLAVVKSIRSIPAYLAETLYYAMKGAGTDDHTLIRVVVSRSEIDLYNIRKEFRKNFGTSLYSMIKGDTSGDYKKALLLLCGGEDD

[17] = target: Annexin A2 (Bos taurus) (UniProt P04272); test: Displacement of biotinyl-withaferin from bovine lung annexin-2 at 4 uM by chemiluminescence assay
[18] = system: PC-3M; test: Cytotoxicity against human PC3M cells assessed as viable cell after 24 hrs by MTT assay; type: functional, cell-based
[19] = target: Annexin A2 (Homo sapiens) (UniProt P07355); test: Displacement of biotinyl-withaferin from annexin-2 in human CHP100 at 0.4 to 4 uM by chemiluminescence assay
[20] = target: Annexin A2 (Homo sapiens) (UniProt P07355); test: Induction of annexin 2-mediated cytoskeleton aggregate accumulation in human HepG2 cells at 4 uM after 2 hrs by confocal laser scanning microscopy; type: cell-based
[21] = target: Annexin A2 (Bos taurus) (UniProt P04272); test: Displacement of biotinyl-withaferin from bovine lung annexin-2 at 0.4 uM by chemiluminescence assay
[22] = system: WI-38; test: Cytotoxicity against human WI38 cells assessed as cell viability pretreated after 16 hrs by MTT assay in presence of 0.5 uM cytochalasin B; type: functional, cell-based
[23] = system: HepG2; test: Cytotoxicity against human HepG2 cells harboring annexin 2 after 48 hrs by MTT assay; type: functional, cell-based
[24] = system: WI-38; test: Cytotoxicity against human WI38 cells assessed as cell viability pretreated after 16 hrs by MTT assay in presence of 1 uM cytochalasin B; type: functional, cell-based
[25] = target: Annexin A2 (Bos taurus) (UniProt P04272); test: Displacement of biotinyl-withaferin from bovine lung annexin-2 at 40 uM by chemiluminescence assay
[26] = target: Annexin A2 (Homo sapiens) (UniProt P07355); test: Induction of annexin-2-mediated cytotoxicity in human CHP100 cells at 4 uM after 2 hrs by MTT assay; type: cell-based

Sequence of Annexin A2 (Bos taurus) (P04272 whole entry): as the sequence (P07355 whole entry) above, with A66E, I160V, P223C, D230E, R245K, R309K counted along it

- inhibition [1]: Active
- Activity [2]: Active
SMILES: CCN1C(=O)C=CC1=O

- Activity [3]: Active
- Activity [5]: Active
- Activity [6]: Active
- Activity [7]: inactive
- Activity [9]: inactive
- Activity [11]: inactive
- Activity [12]: inactive
- Activity [13]: Active
- Activity [14]: Active
- Activity [15]: inactive
- Activity [16]: inactive
- Activity [17]: Active
- Activity [19]: Active
- Activity [20]: Active
- Activity [21]: Active
- inhibition [1]: inactive
- Activity [2]: inactive
- Activity [25]: Active
SMILES: CC1=C(CO)C(=O)O[C@@H]([C@@H](C)[C@H]2CC[C@H]3[C@@H]4C[C@H]5O[C@]56[C@@H](O)C=CC(=O)[C@]6(C)[C@H]4CC[C@]23C)C1
- Activity [4]: Active
- Activity [8]: inactive
- Activity [10]: Active
- Activity [18]: Active
- Activity [22]: inactive
- Activity [23]: Toxic
- Activity [24]: inactive

SMILES: CC1=C(C)C(=O)O[C@H]([C@](C)(O)[C@H]2CC[C@H]3[C@@H]4C[C@H]5O[C@]56[C@@H](O)C=CC(=O)[C@]6(C)[C@H]4CC[C@]23C)C1
- Activity [26]: inactive
- Activity [8]: inactive
- Activity [25]: inactive
